Consider ten compounds from article PMC9892271 (Journal of medicinal chemistry, 2023).

The term inhibition denotes the share of the control response that was lost under treatment. A high value points to a response far below the control. The IC50 is the midpoint of a concentration-inhibition curve.

Like-named read-outs stand apart in the source and are kept apart here.

One assay has as its target T1, NTMT1 (Homo sapiens, UniProt Q9BV86).
T1 sequence (Q9BV86 1-222): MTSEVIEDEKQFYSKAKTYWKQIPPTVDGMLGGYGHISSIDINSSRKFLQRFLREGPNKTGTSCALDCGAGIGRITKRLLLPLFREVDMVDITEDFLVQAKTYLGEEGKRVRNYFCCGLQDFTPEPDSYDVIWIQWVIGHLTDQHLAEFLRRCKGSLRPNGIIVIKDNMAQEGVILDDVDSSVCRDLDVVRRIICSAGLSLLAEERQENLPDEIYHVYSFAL

The next assay deals with T2, G9a (Homo sapiens, UniProt Q96KQ7).
T2 sequence (Q96KQ7 1-1210): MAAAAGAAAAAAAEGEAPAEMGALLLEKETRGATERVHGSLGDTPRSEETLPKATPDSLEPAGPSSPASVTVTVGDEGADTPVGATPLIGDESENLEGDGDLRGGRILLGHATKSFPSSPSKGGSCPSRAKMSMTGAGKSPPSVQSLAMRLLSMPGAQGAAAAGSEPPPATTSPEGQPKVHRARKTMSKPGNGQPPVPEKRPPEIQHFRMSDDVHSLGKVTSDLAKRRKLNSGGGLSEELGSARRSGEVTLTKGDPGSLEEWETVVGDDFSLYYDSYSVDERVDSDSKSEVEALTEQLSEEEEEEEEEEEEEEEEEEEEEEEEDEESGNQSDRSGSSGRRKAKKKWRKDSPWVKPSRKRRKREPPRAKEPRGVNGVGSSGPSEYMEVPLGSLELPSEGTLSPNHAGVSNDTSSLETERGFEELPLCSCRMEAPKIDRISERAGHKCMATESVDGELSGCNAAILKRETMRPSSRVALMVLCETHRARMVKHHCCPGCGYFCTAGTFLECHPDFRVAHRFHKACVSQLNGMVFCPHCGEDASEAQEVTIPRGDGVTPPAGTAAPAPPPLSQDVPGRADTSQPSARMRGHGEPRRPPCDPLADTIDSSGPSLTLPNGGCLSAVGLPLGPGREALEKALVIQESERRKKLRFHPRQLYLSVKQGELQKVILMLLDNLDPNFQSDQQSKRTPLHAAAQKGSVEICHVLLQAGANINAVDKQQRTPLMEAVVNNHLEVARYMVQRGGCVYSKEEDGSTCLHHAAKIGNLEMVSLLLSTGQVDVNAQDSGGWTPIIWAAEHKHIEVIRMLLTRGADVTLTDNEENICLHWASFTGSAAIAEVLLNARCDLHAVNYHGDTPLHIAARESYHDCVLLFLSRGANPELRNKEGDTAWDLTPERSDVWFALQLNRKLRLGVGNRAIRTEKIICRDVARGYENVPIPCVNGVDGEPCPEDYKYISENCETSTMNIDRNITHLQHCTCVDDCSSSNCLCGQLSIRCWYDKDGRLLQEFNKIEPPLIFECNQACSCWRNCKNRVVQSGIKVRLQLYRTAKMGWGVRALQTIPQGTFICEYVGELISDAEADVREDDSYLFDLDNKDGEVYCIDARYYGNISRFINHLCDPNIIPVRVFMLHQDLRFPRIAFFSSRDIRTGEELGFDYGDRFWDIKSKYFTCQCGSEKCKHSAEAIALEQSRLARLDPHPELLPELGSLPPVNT
Kind of assay: SAHH-coupled selectivity assay, G9a. Type of assay: biochemical.

The next assay concerns the target PRMT1 (Homo sapiens, UniProt Q99873). Kind of assay: SAHH-coupled selectivity assay, PRMT1. Format: biochemical.
The target of a further assay is TbPRMT7 (Trypanosoma brucei brucei, UniProt Q582G4). Kind of assay: SAHH-coupled selectivity assay, PRMT7. Type of assay: biochemical.
Chain of TbPRMT7 (Q582G4 whole entry): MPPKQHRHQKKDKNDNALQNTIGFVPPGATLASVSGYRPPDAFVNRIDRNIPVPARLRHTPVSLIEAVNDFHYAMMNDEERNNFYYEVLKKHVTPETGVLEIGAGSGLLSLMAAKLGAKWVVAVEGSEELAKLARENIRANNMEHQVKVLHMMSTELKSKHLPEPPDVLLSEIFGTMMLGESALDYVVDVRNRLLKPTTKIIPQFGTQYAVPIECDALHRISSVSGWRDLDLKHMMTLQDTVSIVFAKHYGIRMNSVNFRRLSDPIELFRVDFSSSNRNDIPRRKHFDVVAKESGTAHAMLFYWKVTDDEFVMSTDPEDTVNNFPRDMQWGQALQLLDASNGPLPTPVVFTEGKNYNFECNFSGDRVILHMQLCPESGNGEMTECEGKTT
For another assay, the target named is T3, NNMT (Homo sapiens, UniProt P40261).
T3 sequence (P40261 1-264): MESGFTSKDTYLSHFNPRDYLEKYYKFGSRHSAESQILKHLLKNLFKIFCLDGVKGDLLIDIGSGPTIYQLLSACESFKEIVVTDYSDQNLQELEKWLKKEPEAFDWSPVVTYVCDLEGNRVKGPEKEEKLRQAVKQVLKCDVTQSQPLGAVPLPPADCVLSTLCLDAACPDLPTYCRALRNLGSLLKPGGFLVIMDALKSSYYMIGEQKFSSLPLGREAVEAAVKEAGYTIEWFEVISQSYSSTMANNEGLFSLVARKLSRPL
Briefly: SAHH-coupled selectivity assay, NNMT. Format: biochemical.

A further assay concerns the target T4, SETD7 (Homo sapiens, UniProt Q8WTS6).
T4 sequence (Q8WTS6 1-366): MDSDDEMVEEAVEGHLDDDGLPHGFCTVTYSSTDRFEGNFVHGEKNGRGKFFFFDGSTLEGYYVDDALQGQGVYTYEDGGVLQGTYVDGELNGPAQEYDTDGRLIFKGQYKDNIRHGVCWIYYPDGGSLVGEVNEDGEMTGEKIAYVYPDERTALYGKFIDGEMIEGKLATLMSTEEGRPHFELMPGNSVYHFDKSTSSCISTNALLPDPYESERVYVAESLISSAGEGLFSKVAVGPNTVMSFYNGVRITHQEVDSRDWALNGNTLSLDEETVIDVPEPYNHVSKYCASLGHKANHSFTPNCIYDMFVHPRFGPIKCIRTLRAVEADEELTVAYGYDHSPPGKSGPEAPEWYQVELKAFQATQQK
Kind of assay: SAHH-coupled selectivity assay, SETD7. Type of assay: biochemical.

The next assay deals with SAHH (Homo sapiens, UniProt P23526). Kind of assay: selectivity assay, coupling enzyme SAHH. Type of assay: biochemical.
Chain of SAHH (P23526 whole entry, species assumed): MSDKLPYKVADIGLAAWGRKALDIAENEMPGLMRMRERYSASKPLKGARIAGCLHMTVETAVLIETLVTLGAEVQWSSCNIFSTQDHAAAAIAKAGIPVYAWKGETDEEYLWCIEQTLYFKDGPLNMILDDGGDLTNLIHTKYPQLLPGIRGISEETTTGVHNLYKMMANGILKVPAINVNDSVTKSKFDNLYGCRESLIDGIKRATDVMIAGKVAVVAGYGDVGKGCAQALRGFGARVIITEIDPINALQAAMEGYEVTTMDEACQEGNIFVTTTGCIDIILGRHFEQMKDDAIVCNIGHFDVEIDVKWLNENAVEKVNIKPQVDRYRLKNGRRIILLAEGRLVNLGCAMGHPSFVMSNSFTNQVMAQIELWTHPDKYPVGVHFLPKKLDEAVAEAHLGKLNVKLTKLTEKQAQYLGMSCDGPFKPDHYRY
The target of another assay is NTMT2 (Homo sapiens, UniProt Q5VVY1). Briefly: SAM-dependent methyltransferase panel. Format: biochemical. Conditions: single dose of 50 μM.
Chain of NTMT2 (Q5VVY1 whole entry): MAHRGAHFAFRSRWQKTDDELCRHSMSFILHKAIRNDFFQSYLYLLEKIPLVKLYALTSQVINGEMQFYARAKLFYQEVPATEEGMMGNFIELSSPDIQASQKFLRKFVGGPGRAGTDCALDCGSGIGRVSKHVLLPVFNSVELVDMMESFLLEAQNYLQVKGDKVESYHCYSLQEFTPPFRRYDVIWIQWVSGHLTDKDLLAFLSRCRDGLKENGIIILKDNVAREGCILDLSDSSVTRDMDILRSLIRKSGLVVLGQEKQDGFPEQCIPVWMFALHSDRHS
The target of the next assay is MLL1 complex (Homo sapiens, UniProt Q03164). Briefly: SAM-dependent methyltransferase panel. Type of assay: biochemical. To be noted: single dose of 50 μM.
Chain of MLL1 complex (Q9C005 whole entry): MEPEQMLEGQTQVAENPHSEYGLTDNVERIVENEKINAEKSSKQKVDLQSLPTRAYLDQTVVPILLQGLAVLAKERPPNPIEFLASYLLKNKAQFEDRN
Chain of MLL1 complex (Q03164 3745-3969): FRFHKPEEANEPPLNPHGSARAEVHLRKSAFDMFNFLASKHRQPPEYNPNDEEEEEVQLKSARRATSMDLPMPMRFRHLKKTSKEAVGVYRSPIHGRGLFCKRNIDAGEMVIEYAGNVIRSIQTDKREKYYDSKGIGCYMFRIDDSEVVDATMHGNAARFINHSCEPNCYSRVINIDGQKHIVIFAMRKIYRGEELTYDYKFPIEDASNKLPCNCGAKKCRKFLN
Chain of MLL1 complex (Q15291 whole entry, further chain): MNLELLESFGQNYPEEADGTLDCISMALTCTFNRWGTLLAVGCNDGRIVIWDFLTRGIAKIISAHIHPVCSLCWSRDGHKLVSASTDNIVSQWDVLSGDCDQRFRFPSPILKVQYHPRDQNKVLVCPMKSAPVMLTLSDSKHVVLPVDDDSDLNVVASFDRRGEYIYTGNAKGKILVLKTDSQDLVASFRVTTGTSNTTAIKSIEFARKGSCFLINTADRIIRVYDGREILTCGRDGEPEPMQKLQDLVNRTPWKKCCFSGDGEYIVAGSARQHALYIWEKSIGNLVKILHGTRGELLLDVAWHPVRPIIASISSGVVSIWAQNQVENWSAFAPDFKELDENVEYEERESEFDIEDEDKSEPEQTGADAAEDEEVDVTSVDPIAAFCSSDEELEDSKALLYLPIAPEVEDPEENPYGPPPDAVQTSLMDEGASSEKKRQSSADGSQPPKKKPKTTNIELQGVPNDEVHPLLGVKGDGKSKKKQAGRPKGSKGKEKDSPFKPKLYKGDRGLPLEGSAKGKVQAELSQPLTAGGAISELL
Chain of MLL1 complex (Q9UBL3 96-628, further chain): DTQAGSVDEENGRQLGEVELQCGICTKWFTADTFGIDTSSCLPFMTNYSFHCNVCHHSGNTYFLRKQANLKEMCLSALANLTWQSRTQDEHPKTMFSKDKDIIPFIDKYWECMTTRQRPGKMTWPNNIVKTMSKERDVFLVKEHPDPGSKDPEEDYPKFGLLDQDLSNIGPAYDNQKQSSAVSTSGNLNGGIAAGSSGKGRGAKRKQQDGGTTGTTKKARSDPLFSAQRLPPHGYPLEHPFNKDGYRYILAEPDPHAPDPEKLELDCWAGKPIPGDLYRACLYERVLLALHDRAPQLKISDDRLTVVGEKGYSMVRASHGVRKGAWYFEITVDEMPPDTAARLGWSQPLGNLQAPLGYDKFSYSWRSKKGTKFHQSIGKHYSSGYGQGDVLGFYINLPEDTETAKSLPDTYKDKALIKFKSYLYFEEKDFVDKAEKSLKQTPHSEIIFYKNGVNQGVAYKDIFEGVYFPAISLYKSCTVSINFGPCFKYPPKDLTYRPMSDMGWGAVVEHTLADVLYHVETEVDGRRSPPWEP
Assay [1] deals with me3-RCC1 and me3-SET in HEK293 cells. Kind of assay: cellular N-methylation level study. Type of assay: cell-based.
The next assay deals with T5, GCS (Homo sapiens, UniProt Q16739).
T5 sequence (Q16739 1-394): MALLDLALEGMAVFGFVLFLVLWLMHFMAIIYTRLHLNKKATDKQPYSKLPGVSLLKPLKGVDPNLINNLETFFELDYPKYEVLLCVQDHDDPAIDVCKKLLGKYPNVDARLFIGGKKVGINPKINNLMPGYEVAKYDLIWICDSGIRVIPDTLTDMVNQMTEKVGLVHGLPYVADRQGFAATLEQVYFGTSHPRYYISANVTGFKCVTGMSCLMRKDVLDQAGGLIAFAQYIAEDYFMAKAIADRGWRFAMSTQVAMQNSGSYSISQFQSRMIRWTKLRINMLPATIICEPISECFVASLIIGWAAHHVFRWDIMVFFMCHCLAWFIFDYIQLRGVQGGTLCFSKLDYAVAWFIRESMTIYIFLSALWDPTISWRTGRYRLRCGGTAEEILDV
Type of assay: cell-based. To be noted: 30 nM, HCT116 cells.

Assay [2] deals with me3-RCC1 and me3-SET in HEK293 cells. Conditions: cited from earlier work.

Chain of PRMT1 (Q99873 whole entry, species assumed): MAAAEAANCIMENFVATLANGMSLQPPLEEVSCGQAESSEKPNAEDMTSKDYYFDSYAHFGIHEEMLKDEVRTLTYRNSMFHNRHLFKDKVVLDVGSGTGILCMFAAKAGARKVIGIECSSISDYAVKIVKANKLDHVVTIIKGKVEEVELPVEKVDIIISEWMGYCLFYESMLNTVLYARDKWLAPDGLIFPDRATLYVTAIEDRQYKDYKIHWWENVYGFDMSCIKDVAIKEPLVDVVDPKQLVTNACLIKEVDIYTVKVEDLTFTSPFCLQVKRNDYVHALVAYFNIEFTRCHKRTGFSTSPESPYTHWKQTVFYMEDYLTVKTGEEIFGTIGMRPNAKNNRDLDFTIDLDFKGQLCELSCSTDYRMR

With `CN1CCC[C@H](OC(=O)NC(C)(C)c2csc(-c3ccc(F)cc3)n2)C1` [Compound 5, (S)-1-methylpiperidin-3-yl (2-(2-(4-Fluorophenyl)thiazol-4-yl)propan-2-yl)carbamate], at NTMT1 (NTMT1 IC50), the “fold loss of potency compared to venglustat” value is given as “over 40 fold”.
On the same count and under the same terms, then `CCCN1CCC[C@H](OC(=O)NC(C)(C)c2csc(-c3ccc(F)cc3)n2)C1` [Compound 6, (S)-1-propylpiperidin-3-yl (2-(2-(4-Fluorophenyl)thiazol-4-yl)propan-2-yl)carbamate], with “over 40 fold”.
Regarding `CC(C)(NC(=O)OCCN1CCCCC1)c1csc(-c2ccc(F)cc2)n1` [Compound 7, 2-(Piperidin-1-yl)ethyl (2-(2-(4-Fluorophenyl)thiazol-4-yl)propan-2-yl)carbamate], the “fold reduction compared to 6” value on NTMT1 (NTMT1 IC50) is > 5 fold.
For the compound `CC(C)(NC(=O)Oc1cccnc1)c1csc(-c2ccc(F)cc2)n1` [Compound 8, Pyridin-3-yl (2-(2-(4-Fluorophenyl)thiazol-4-yl)propan-2-yl)carbamate], the “NTMT1 inhibition (in words)” value at NTMT1 is on record as “null activity”.
For `CC(C)(NC(=O)N[C@@H]1CN2CCC1CC2)c1csc(-c2ccc(F)cc2)n1` [Compound 9, 1-(2-(2-(4-Fluorophenyl)thiazol-4-yl)propan-2-yl)-3-(quinuclidin-3-yl)urea], the “fold loss of potency compared to venglustat” value on NTMT1 (NTMT1 IC50) is reported as > 100 fold.
For the compound `CC(C)(C(=O)N[C@@H]1CN2CCC1CC2)c1csc(-c2ccc(F)cc2)n1` [Compound 10, 2-(2-(4-Fluorophenyl)thiazol-4-yl)-2-methyl-N-(quinuclidin-3-yl)propenamide], the “NTMT1 inhibition (in words)” value at NTMT1 was “did not show any inhibition”.
As for `CC(C)(NC(=O)O[C@@H]1CN2CCC1CC2)c1csc(-c2ccc(F)c(O)c2)n1` [GD433], the inhibition result on G9a (10 μM) is listed as “no significant inhibition”; against G9a (30 μM) it was “no significant inhibition”; against G9a (100 μM), “did not exhibit inhibition”; against PRMT1 (10 μM), “no significant inhibition”; on PRMT1 (30 μM), “no significant inhibition”; on PRMT1 (100 μM), 50%. Also, the inhibition entry on TbPRMT7 (10 μM) was “no significant inhibition”; on TbPRMT7 (30 μM) it was “no significant inhibition”; against TbPRMT7 (100 μM), “did not exhibit inhibition”; on NNMT (10 μM) it was “no significant inhibition”; against NNMT (30 μM) it was “no significant inhibition”; against NNMT (100 μM), “did not exhibit inhibition”. Besides, the inhibition result is “no significant inhibition” at SETD7 (10 μM); “no significant inhibition” against SETD7 (30 μM); “did not exhibit inhibition” against SETD7 (100 μM); “no significant inhibition” against SAHH (10 μM); “no significant inhibition” on SAHH (30 μM); “did not exhibit inhibition” against SAHH (100 μM). In addition, the inhibition result against NTMT2 was “potently inhibited”; against MLL1 complex, ~ 25%.
As for `CC(C)(NC(=O)O[C@@H]1CN2CCC1CC2)c1csc(-c2cncnc2)n1` [YD2160], in [1] (up to 30 μM), the “change in me3-RCC1 or me3-SET” value is “did not induce any change”.
As to `CC(C)(NC(=O)O[C@@H]1CN2CCC1CC2)c1csc(-c2ccc(Cl)c(O)c2)n1` [YD2200], in assay [1] (1 μM), the “effect on me3-RCC1 and me3-SET” value is on record as “significantly reduces”. Besides, the IC50 in [1] (read-out: approximate IC50, me3-RCC1 and me3-SET) is ~300 nM.
Consider `CC(C)(NC(=O)O[C@@H]1CN2CCC1CC2)c1csc(-c2ccc(F)cc2)n1` [venglustat, (S)-quinuclidin-3-yl (2-(2-(4-Fluorophenyl)thiazol-4-yl)propan-2-yl)carbamate], for which, on GCS, the “inhibition of cellular GCS activity” value is “significantly inhibits”. Moreover, the IC50 is 500 nM in assay [2] (cellular inhibition assay); ~300 nM in [2] (read-out: approximate IC50, me3-RCC1 and me3-SET, HEK293 cells).
